Key:
[1] = test system: tTGase and Factor XIIIa expression in knee articular cartilage and medial meniscus; test: Immunohistochemistry of cartilage organ culture; assay type: cell-based, human; conditions: organ culture 48 hours
Description: Articular cartilage and medial menisci from normal donors were studied in cartilage organ culture in media supplemented with 1% FCS and 1% L-glutamine, as described in the Methods, following 48 hours of treatment with TGFβ 10 ng/ml, IL-1β (1 ng/ml), or medium alone.
Immunohistochemistry was performed as previously described in detail (30,33,34). In brief, immunohistochemical sections (5 microns) were pretreated with bovine testicular hyaluronidase (0.5 mg/ml at 37° C. for 30 min) and incubated in 5% normal goat or rabbit serum for 20 min prior to avidin/biotin peroxidase staining by the ABC method. Hematoxilin was used as the counterstain. Biotinylated anti-rabbit or anti-goat antibodies served as secondary antibodies. Levamisole was added to block endogenous alkaline phosphatase (AP). Negative controls were nonimmune rabbit or goat serum as a substitute for primary antibody.
Meniscal cells were taken from tissue slices removed from the central regions of the medial and lateral menisci. Where indicated, meniscal organ culture was performed by incubating these slices for b 48 hours in DMEM high glucose containing 1% FCS and 1% L-glutamine (and articular cartilage organ culture performed in the same manner, where indicated). Otherwise, we minced meniscal tissue with a scalpel, incubated in DMEM high glucose containing 2 mg/ml clostridial collagenase, 5% FCS, 1% L-glutamine, 100 units/ml Penicillin and 50 μg/ml Streptomycin (Omega Scientific, Tarzana, Calif.), and incubated on a gyratory shaker at 37° C. until the tissue fragments were digested. Residual multicellular aggregates were removed by sedimentation (1,000×g), and cells were washed three times in DMEM containing 5% FCS.

[2] = test system: TGase activity in knee meniscal cells and TC28 cells; test: TGase activity in nonadherent nodule-forming culture on polyHEME; assay type: cell-based, human; conditions: polyHEME plates, β-glycerophosphate, ascorbate, dexamethasone, up to 10 days; cytokines 10 ng/ml or TGase transfection
Description: FIG. 10 refers to effects of direct Factor XIIIa and tTGase expression on TGase activity in meniscal cells and TC28 cells. Human chondrocytic TC28 cells or normal knee meniscal cells (5×10^5), were plated in 60 mm dishes and allowed to adhere overnight, as described in the Methods. Two μg of plasmid DNAs or empty plasmid vector were then transfected, performed as described above. After 24 hrs, the cells were removed from the dishes and plated on polyHEME-coated tissue culture plates and media supplemented with 10 mM P-glycerophosphate, ascorbatte (50 μg/ml) and dexamethasone (10^−8 M), which stimulated the cells to form mineralizing nodules for 3-10 days in culture. For comparison purposes, cells were treated only with IL-1 or TGFβ (10 ng/ml each) for up to 10 days. At each time point designated, the cell nodules were collected and lysed, and TGase activity then determined as previously described. For meniscal cells, data pooled from 6 donors studied in triplicate. For TC28 cells, n=6 each, studied in triplicate. Statistics not indicated on this graph, but p<0.05 for the increases in TGase activities in response to both Factor XIIIa and tTGase transfection, and for IL-1 treatment, at all time points.
TGase activity was measured by modifications to a previously described method (35). Specifically, we coated 96 well ImmunoModule plates (Nunc, Rochester, N.Y.) with 200 μl of 20 mg/ml N,N-dimethylcasein for 1 hr at 23° C. The N,N-dimethylcasein was removed and nonspecific protein binding was blocked by adding 3% BSA in 100 mM Tris, pH 8.5, 150 mM NaCl, 0.05% Tween-20 (TBST) to each well for an additional 1 hr at 23° C. Then, aliquots of 5 μg of total cellular protein from meniscal or TC28 cells that had been lysed and sonicated (in 5 mM Tris HCl, 0.25 M sucrose, 0.2 mM MgSO4, 2 mM DTT, 0.4 mM PMSF, 0.4% Triton X100, pH 7.5), were added to the plate in triplicate. To measure TGase in extracts of whole menisci, 50 mg dry weight of tissue from the central zone of each medial meniscus was used as the source (after solubilization and sonication) for aliquots of 5 μg of soluble protein. Fifty μl of solution A (100 mM Tris, pH 8.5 and 20 mM CaCl2) was added to all samples for TGase assay, followed by the addition of 50 μl of solution B (100 mM Tris, pH 8.5, 40 mM DTT and freshly added 2 mM 5-(Biotinamido) pentylamine (BP)). The plates were incubated for 1 hr at 37° C. The wells were washed once with TBST containing 1 mM EDTA and then three times with TBST. […] Readings at OD410 were taken over 15 minutes. […] TGase activity was designated as the amount of BP incorporated into casein (per μg cellular DNA, determined chromogenically following precipitation in perchlorate (28), or, where indicated, per μg protein, determined as previously described (28)). […]

Substance: IL-1β: Human recombinant IL-1β purchased from R&D Systems
- tTGase and Factor XIIIa immunostaining ([1]; knee articular cartilage and meniscal cartilage slices, TGFβ 10 ng/ml, IL-1β 1 ng/ml): induced increased tTGase and Factor XIIIa immunostaining
- Factor XIIIa expression ([1]; knee articular cartilage): up-regulated
- tTGase expression ([1]; knee articular cartilage): up-regulated tTGase expression
- TGase activity under mineralizing nonadherent conditions [2]: induced significant increases in TGase activity

— patent US20040109845A1, “Method for inhibiting articular cartilage matrix calcification” (priority 2001, published 2004)
